The values that follow are results of earlier work, collected in patent US20230381101A1, “AQUEOUS PHARMACEUTICAL COMPOSITIONS COMPRISING SGLT-2 INHIBITORS” (Boehringer Ingelheim Vetmedica GmbH, priority 2022, published 2023).

The structures appear in SMILES notation.

For the series the following is noted: n-octanol/water; values taken from http://www.chemicalize.org/.
Regarding `CC(=O)N(C)C` [N,N-dimethylacetamide], the log10P was −0.583.

Regarding `CCO` [ethanol], the log10P is listed as −0.16.

As for `OCC(O)CO` [propane-1,2,3-triol], the log10P is −1.84.
